Source: ChEMBL document CHEMBL4814067, “An optimized analog of antimicrobial peptide Jelleine-1 shows enhanced antimicrobial activity against multidrug resistant P. aeruginosa and negligible toxicity in vitro and in vivo” (Eur J Med Chem, 2021)
The source made the active and inactive calls. The rule behind the calls is not given here.

Columns and labels:
[1] = tested on: Enterobacter sp.; experiment: Antibacterial activity against Enterobacter sakazakii ATCC 29544 assessed as transparent well by visual inspection after 18 hrs by CLSI based-broth microdilution method; type: functional
[2] = tested on: Bacillus subtilis; experiment: Antibacterial activity against Bacillus subtilis ATCC 23857 assessed as transparent well by visual inspection after 18 hrs by CLSI based-broth microdilution method; type: functional
[3] = tested on: Pseudomonas aeruginosa; experiment: Antibacterial activity against Pseudomonas aeruginosa ATCC 27853 assessed as transparent well by visual inspection after 18 hrs by CLSI based-broth microdilution method; type: functional
[4] = tested on: Staphylococcus epidermidis; experiment: Antibacterial activity against Staphylococcus epidermidis ATCC 12228 assessed as transparent well by visual inspection after 18 hrs by CLSI based-broth microdilution method; type: functional
[5] = tested on: Staphylococcus aureus; experiment: Antibacterial activity against Staphylococcus aureus ATCC 29213 assessed as transparent well by visual inspection after 18 hrs by CLSI based-broth microdilution method; type: functional; conditions: C1 ATCC 29213
[6] = tested on: Escherichia coli; experiment: Antibacterial activity against Escherichia coli ATCC 25922 assessed as transparent well by visual inspection after 18 hrs by CLSI based-broth microdilution method; type: functional
[7] = tested on: Staphylococcus aureus; experiment: Antibacterial activity against methicillin resistant Staphylococcus aureus clinical isolate 3 assessed as transparent well by visual inspection after 18 hrs by CLSI based-broth microdilution method; type: functional
[8] = tested on: Staphylococcus aureus; experiment: Antibacterial activity against methicillin resistant Staphylococcus aureus clinical isolate 4 assessed as transparent well by visual inspection after 18 hrs by CLSI based-broth microdilution method; type: functional
[9] = tested on: Escherichia coli; experiment: Antibacterial activity against ESBL-producing Escherichia coli clinical isolate 1 assessed as transparent well by visual inspection after 18 hrs by CLSI based-broth microdilution method; type: functional
[10] = tested on: Pseudomonas aeruginosa; experiment: Antibacterial activity against Pseudomonas aeruginosa clinical isolate assessed as transparent well by visual inspection after 18 hrs by CLSI based-broth microdilution method; type: functional
[11] = tested on: Pseudomonas aeruginosa; experiment: Inhibition of biofilm formation in multidrug-resistant Pseudomonas aeruginosa at 256 uM measured after 24 hrs by crystal violet staining based assay; type: functional, organism-based
[12] = tested on: Erythrocyte; experiment: Haemolytic activity in human erythrocytes at 256 uM by optical absorption assay; type: ADME, cell-based
[13] = tested on: Cell membrane; experiment: Induction of outer membrane permeabilization in Escherichia coli using NPN hydrophobic fluorescent probe at 1 to 8 times of MIC measured for 15 mins by multimode reader
[14] = tested on: Escherichia coli; experiment: Antibacterial activity against ESBL-producing Escherichia coli clinical isolate 3 assessed as transparent well by visual inspection after 18 hrs by CLSI based-broth microdilution method; type: functional
[15] = tested on: Escherichia coli; experiment: Antibacterial activity against ESBL-producing Escherichia coli clinical isolate 5 assessed as transparent well by visual inspection after 18 hrs by CLSI based-broth microdilution method; type: functional
[16] = tested on: Escherichia coli; experiment: Antibacterial activity against ESBL-producing Escherichia coli clinical isolate 2 assessed as transparent well by visual inspection after 18 hrs by CLSI based-broth microdilution method; type: functional
[17] = tested on: Staphylococcus aureus; experiment: Antibacterial activity against methicillin resistant Staphylococcus aureus clinical isolate 2 assessed as transparent well by visual inspection after 18 hrs by CLSI based-broth microdilution method; type: functional
[18] = tested on: Escherichia coli; experiment: Antibacterial activity against ESBL-producing Escherichia coli clinical isolate 4 assessed as transparent well by visual inspection after 18 hrs by CLSI based-broth microdilution method; type: functional
[19] = tested on: Staphylococcus aureus; experiment: Antibacterial activity against methicillin resistant Staphylococcus aureus clinical isolate 1 assessed as transparent well by visual inspection after 18 hrs by CLSI based-broth microdilution method; type: functional; conditions: C1
[20] = tested on: Cell membrane; experiment: Induction of inner membrane permeabilization in Escherichia coli ML-35 assessed as increase in ONPG at 1 to 8 times of MIC measured 100 mins by multimode reader

Row | Substance | MIC [1] [µM] | MIC [2] [µM] | MIC [3] [µM] | MIC [4] [µM] | MIC [5] [µM] | MIC [6] [µM] | MIC [7] [µM] | MIC [8] [µM] | MIC [9] [µM] | MIC [10] [µM] | inhibition [11] | Activity [12] | Activity [13] | MIC [14] [µM] | MIC [15] [µM] | MIC [16] [µM] | MIC [17] [µM] | MIC [18] [µM] | MIC [19] [µM] | Activity [20]
1 | H-PWKLSLHL-OH | 16 | 16 | 16 | 32 | 64 | 16 | – | – | – | – | – | – | – | – | – | – | – | – | – | –
2 | H-PFKLSLHL-OH | 64 | 32 | 32 | 64 | 128 | 32 | 128 | 128 | 32 | 32 | Active | Toxic | Dose-Dependent Effect | 32 | 32 | 32 | 128 | 32 | 128 | Active
3 | H-PFRLSLHL-OH | 32 | 16 | 32 | 34 | 128 | 32 | – | – | – | – | – | – | – | – | – | – | – | – | – | –
4 | H-PFKLKLHL-OH | 32 | 32 | 32 | 32 | 128 | 32 | – | – | – | – | – | – | – | – | – | – | – | – | – | –

The next lines start with results.

Row | MIC [1] [µM] | MIC [2] [µM] | MIC [3] [µM] | MIC [4] [µM] | MIC [5] [µM] | MIC [6] [µM] | Substance | MIC [7] [µM] | MIC [8] [µM] | MIC [9] [µM] | MIC [10] [µM] | inhibition [11] | Activity [12] | Activity [13] | MIC [14] [µM] | MIC [15] [µM] | MIC [16] [µM] | MIC [17] [µM] | MIC [18] [µM] | MIC [19] [µM] | Activity [20]
5 | 8 | 8 | 32 | 16 | 32 | 8 | H-PWRLRLHL-OH | – | – | – | – | – | – | – | – | – | – | – | – | – | –
6 | 16 | 16 | 32 | 16 | 64 | 8 | H-PFRLSLRL-OH | – | – | – | – | – | – | – | – | – | – | – | – | – | –
7 | 8 | 8 | 8 | 16 | 32 | 8 | H-PWRLSLRL-OH | – | – | – | – | – | – | – | – | – | – | – | – | – | –
8 | 8 | 16 | 32 | 16 | 32 | 16 | H-PWKLSLKL-OH | – | – | – | – | – | – | – | – | – | – | – | – | – | –
